Test results as given in publication PMC10746708, “A small molecule iCDM-34 identified by in silico screening suppresses HBV DNA through activation of aryl hydrocarbon receptor” (Cell Death Discovery, 2023).

Assays:
HBV genotype C = assay: Anti-HBV activity in human hepatocyte-chimeric mice (liver HBV DNA); assay type: in vivo, human hepatocyte-chimeric mice (PXB-mice); settings: 21 days
Method: PXB-mice (human liver chimeric cDNA-uPA^wild/+/SCID male mice) were generated by PhoenixBio. HBV genotype C was then inoculated into the mice via i.v.. After attaining 1.2 × 10^8–3.5 × 10^8 copies/mL of the serum HBV DNA levels, vehicle (10% 2-hydroxypropyl-beta-cyclodextrin and 10% polyethylene glycol 300) or 1 mg/kg iCDM-34 was i.v. injected with or without administration of 0.03 mg/kg ETV orally once a day for 21 days (n = 4). DNA was purified from the liver and its concentration was measured using NanoDrop Spectrophotometer (Thermo Fisher Scientific), followed by measurement of HBV DNA levels by qPCR according to a previously established method. The experimental procedures using the PXB-mice was approved by the Animal Ethics Committee of PhoenixBio.

HCV replicon cells = assay: AhR knockdown in HCV replicon cells, luciferase assay; assay type: cell-based; settings: 30 μM, 2 days
Method: For knockdown of AhR in the HCV replicon cells, 2 ×10^4 cells of HCV replicon cells were mixed with AhR siRNA (siGENOME Human AHR siRNA – Smart pool, Horizon Discovery, Cambridgeshire, United Kingdom) and X-tremeGene 360 transfection reagent (Roche) and plated on 96 well plates. After 2 days of knockdown, the cells were treated with 30 μM iCDM-17, iCDM-34, and CDM-3008 for 2 days. The quantity of HCV replicons and cell viability were measured. The cellular RNA was purified using Agencourt RNAdvance (Beckman Coulter, San Jose, CA) and reverse-transcribed using PrimeScript RT master mix (Takara Bio, Kusatsu, Japan) to measure amount of AhR and β-actin mRNAs by quantitative PCR.

PXB cells = assay: Cell viability of HBV-infected PXB cells (RealTime-Glo MT); assay type: cell-based; settings: 3 and 30 µM, with or without 10 nM ETV, 7 days
Method: PXB cells (primary cultured human hepatocytes) were purchased from PhoenixBio (Higashi-Hiroshima, Japan) and cultured on collagen type I-coated 96- or 24-well plates in hepatocyte clonal growth medium at 37 °C and 5 % CO2 as previously described. RealTime-Glo MT Cell Viability Assay (Promega) and XTT assay were performed according to a previously established protocol.

AhR signaling pathway = assay: CYP mRNA qPCR in 3D cultured FLC-4 cells; assay type: cell-based, human; settings: 1, 10 μM, 1 day
Method: The human hepatocellular carcinoma cell line FLC-4 was cultured on micro-space cell culture plates (Elplasia SQ-200, -100, -24, Kuraray, Tokyo, Japan) maintained at 37 °C and 5 % CO2 according to the manufacturer’s protocol. FLC-4 cells suspended in DMEM/Ham’s F12 medium supplemented with 10% heat-inactivated fetal bovine serum, 100 U/mL penicillin G, and 100 μg/mL streptomycin were seeded at a density of 8.0 × 10^5 cells/well and cultured for 3 days. The medium was replenished every 72 h, completely removed, and replaced with serum-free medium containing 1–10 µM iCDM-34 or vehicle (DMSO). Total RNA was isolated from cells and reverse transcribed complementary DNA was subjected to quantitative qPCR. mRNA expression was determined using TaqMan Gene Expression Assays (Hs00167927_m1 for CYP1A2, Hs00604506_m1 for CYP3A4, for Hs00426397_m1 for CYP2C9; Thermo Fisher Scientific, Waltham, MA, USA). Expression levels were determined using the 2^–ΔΔCt method and were normalized to endogenous GAPDH mRNA expression levels.

[1] = Liver microsomal stability, rat; assay type: in vitro ADME; settings: rat liver microsomes
Method: Liver microsome stability studies (human, mouse, and rat) were performed at Sumika Chemical Analysis Service (Osaka, Japan) by following an established procedure. A mixture of 1 μM of substrate, 0.5 mg protein/mL of microsomes, and […] β-NADPH was incubated for 30 or 60 min and % remaining substrate was quantitatively measured by LC-MS/MS.

HBV-infected PXB cells = assay: Microarray gene expression analysis of HBV-infected PXB cells; assay type: cell-based, human
Method: PXB cells cultured in 24-well plates were infected with three genome equivalents per cell of HBV C_AT. After 24 days of infection, the cells were treated with 0.3 and 30 µM iCDM-34 and 1,000 IU/mL IFN-α (Sumitomo Dainippon Pharma, Osaka, Japan) for 7 days (n = 3). Total RNA was extracted from the treated cells and subjected to microarray analysis. The raw and normalized data were uploaded to NCBI Gene Expression Omnibus (GSE180646).
To explore the biological interpretation of the transcriptome data, the canonical pathways and upstream causal networks were identified using knowledge-based functional analysis software from Ingenuity Pathways Analysis (IPA; Ingenuity Systems, Redwood City, CA, USA). […] A statistical measure of the IPA analysis is the activation z-score, which can be used to identify likely regulating molecules based on a statistically significant pattern match of up- and downregulation, and to predict the activation state (either activated or inhibited) of a putative regulator [37]. An absolute value of z-score more than 2 was considered significant.

For `O=C(Nc1ccc(Br)cc1)c1ccn(Cn2cc([N+](=O)[O-])cn2)n1` [iCDM-34], the “HBV DNA in the liver, single agent” value (HBV genotype C; 1 mg/kg i.v. once a day, alone) was “did not reduce”, the “HBV DNA in the liver, combination with ETV compared with ETV alone” value (HBV genotype C; 1 mg/kg i.v. plus ETV 0.03 mg/kg p.o. once a day) was “drastically suppressed” and the “anti-HCV activity (HCV replicon RNA) with AhR siRNA” value (HCV replicon cells; AhR siRNA) was “not present”. The “anti-HCV activity (HCV replicon RNA) with control siRNA” value (HCV replicon cells; control siRNA) was “significant anti-HCV activity”, the “cytotoxicity (cell viability)” value (PXB cells) was “no cytotoxicity” and the “CYP1A2 mRNA expression” value (AhR signaling pathway) was “increased expression”. It also gave a half-life at 1 μM [1] of 3.32 h, a remaining at 0.5 h, 1 μM ([1]; 1 μM substrate, 0.5 mg protein/mL, 30 min) of 90.2 ± 0.5% and a remaining at 1 h, 1 μM ([1]; 1 μM substrate, 0.5 mg protein/mL, 60 min) of 85.2 ± 0.3%. The “expression of ADH1B, G6PC, ADH1A, TAT, SLC38A3, and SLC22A7” value (HBV-infected PXB cells) was “suppressed” and the “expression of CYP1A1, CYP1A2, CYP4A11, CYP1B1, AKR1B15, and AKR1B10” value (HBV-infected PXB cells) was “upregulated”.
